“And” between values parts separate entries of the source, which are not always exact repeats. Equal values may be shown once.
Tested on: 616215-338-R-J1-PDC complex spheroid growth, % test/control
Assay: Anticancer human tumor 616215-338-R-J1-PDC patient-derived colon adenocarcinoma cell line growth inhibition [Asc]
Details: for viability, T/C: stronger effect = lower value
Summary of the method: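 Tumor cells were grown as complex spheroids with human endothelial cells (HUVEC) and human mesenchymal stem cells as stroma. Agents were tested alone and in combination, in half-log steps down from the clinical Cmax, or from 10 microM where Cmax was unknown.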

[1] = curve of first compound, second compound 0.03 µM
[2] = curve of first compound, second compound 0.0949 µM
[3] = curve of first compound, second compound 0.3 µM
[4] = curve of first compound, second compound 0.949 µM
[5] = curve of first compound, second compound 3 µM
[6] = second compound 0.03 µM, first compound 0.0316 µM
[7] = second compound 0.03 µM, first compound 0.1 µM
[8] = second compound 0.03 µM, first compound 0.316 µM
[9] = second compound 0.03 µM, first compound 1 µM
[10] = second compound 0.0949 µM, first compound 0.0316 µM
[11] = second compound 0.0949 µM, first compound 0.1 µM
[12] = second compound 0.0949 µM, first compound 0.316 µM
[13] = second compound 0.0949 µM, first compound 1 µM
[14] = second compound 0.3 µM, first compound 0.0316 µM
[15] = second compound 0.3 µM, first compound 0.1 µM
[16] = second compound 0.3 µM, first compound 0.316 µM
[17] = second compound 0.3 µM, first compound 1 µM
[18] = second compound 0.949 µM, first compound 0.0316 µM
[19] = second compound 0.949 µM, first compound 0.1 µM
[20] = second compound 0.949 µM, first compound 0.316 µM
[21] = second compound 0.949 µM, first compound 1 µM
[22] = second compound 3 µM, first compound 0.0316 µM
[23] = second compound 3 µM, first compound 0.1 µM
[24] = second compound 3 µM, first compound 0.316 µM
[25] = second compound 3 µM, first compound 1 µM
[26] = curve of first compound, second compound 0.1 µM
[27] = curve of first compound, second compound 0.316 µM
[28] = curve of first compound, second compound 1 µM
[29] = curve of first compound, second compound 3.16 µM
[30] = curve of first compound, second compound 10 µM
[31] = second compound 0.1 µM, first compound 0.0316 µM
[32] = second compound 0.1 µM, first compound 0.1 µM
[33] = second compound 0.1 µM, first compound 0.316 µM
[34] = second compound 0.1 µM, first compound 1 µM
[35] = second compound 0.1 µM, first compound 3.16 µM
[36] = second compound 0.1 µM, first compound 10 µM
[37] = second compound 0.316 µM, first compound 0.0316 µM
[38] = second compound 0.316 µM, first compound 0.1 µM
[39] = second compound 0.316 µM, first compound 0.316 µM
[40] = second compound 0.316 µM, first compound 1 µM
[41] = second compound 0.316 µM, first compound 3.16 µM
[42] = second compound 0.316 µM, first compound 10 µM
[43] = second compound 1 µM, first compound 0.0316 µM
[44] = second compound 1 µM, first compound 0.1 µM
[45] = second compound 1 µM, first compound 0.316 µM
[46] = second compound 1 µM, first compound 1 µM
[47] = second compound 1 µM, first compound 3.16 µM
[48] = second compound 1 µM, first compound 10 µM
[49] = second compound 3.16 µM, first compound 0.0316 µM
[50] = second compound 3.16 µM, first compound 0.1 µM
[51] = second compound 3.16 µM, first compound 0.316 µM
[52] = second compound 3.16 µM, first compound 1 µM
[53] = second compound 3.16 µM, first compound 3.16 µM
[54] = second compound 3.16 µM, first compound 10 µM
[55] = second compound 10 µM, first compound 0.0316 µM
[56] = second compound 10 µM, first compound 0.1 µM
[57] = second compound 10 µM, first compound 0.316 µM
[58] = second compound 10 µM, first compound 1 µM
[59] = second compound 10 µM, first compound 3.16 µM
[60] = second compound 10 µM, first compound 10 µM
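Note: spheroids exposed to agents for seven days before readout.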
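Throughout, for viability, T/C: 100% = DMSO vehicle control viability.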

For `C=CC(=O)N1CCN(c2nc(=O)n(-c3c(C)ccnc3C(C)C)c3nc(-c4c(O)cccc4F)c(F)cc23)C(C)C1` (configuration not stated) + CCN1C(C(=O)NC23CCC(C(=O)O)(CC2)CC3)C(c2cccc(Cl)c2F)C2(C(=O)Nc3cc(Cl)ccc32)C12CCCCC2, the IC50 [1] was over 10000 nM, the IC50 [2] was over 10000 nM and the IC50 [3] was over 10000 nM. The IC50 [4] was over 10000 nM, the IC50 [5] was 84.2 nM and the viability, T/C [6] was 100%. It also gave a viability, T/C [7] of 96.3%, a viability, T/C [8] of 102% and a viability, T/C [9] of 102%. The viability, T/C (second compound 0.03 µM, first compound 3.16 µM) was 98.2%, the viability, T/C (second compound 0.03 µM, first compound 10 µM) was 101% and the viability, T/C [10] was 89.3%. For the same compound, the viability, T/C [11] was 93.7%, the viability, T/C [12] was 89.1% and the viability, T/C [13] was 88.8%. For the same compound, the viability, T/C (second compound 0.0949 µM, first compound 3.16 µM) was 92.9%, the viability, T/C (second compound 0.0949 µM, first compound 10 µM) was 85.5% and the viability, T/C [14] was 68.5%. The viability, T/C [15] was 64.5%, the viability, T/C [16] was 66.8% and the viability, T/C [17] was 69.2%. It also gave a viability, T/C (second compound 0.3 µM, first compound 3.16 µM) of 67.3%, a viability, T/C (second compound 0.3 µM, first compound 10 µM) of 68.7% and a viability, T/C [18] of 61.7%. The viability, T/C [19] was 65%, the viability, T/C [20] was 65.5% and the viability, T/C [21] was 58.1%. It also gave a viability, T/C (second compound 0.949 µM, first compound 3.16 µM) of 60%, a viability, T/C (second compound 0.949 µM, first compound 10 µM) of 57.2% and a viability, T/C [22] of 48.2%. The viability, T/C [23] was 49.8%, the viability, T/C [24] was 52.5% and the viability, T/C [25] was 50.3%. The viability, T/C (second compound 3 µM, first compound 3.16 µM) was 48.9% and the viability, T/C (second compound 3 µM, first compound 10 µM) was 45.6%.
`C#Cc1c(F)ccc2cc(O)cc(-c3ncc4c(N5CC6CCC(C5)N6)nc(OCC56CCCN5CC(F)C6)nc4c3F)c12` (configuration not stated) + Cc1c(S(C)(=O)=O)c(-c2cc(F)cc(N3CCN(c4ccc(NS(=O)(=O)c5ccc(NC(CCN6CCC(C(=O)OCCCP(=O)(O)O)CC6)CSc6ccccc6)c(S(=O)(=O)C(F)(F)F)c5)cc4)CC3)c2)c(-c2ccc(Cl)cc2)n1C(C)C showed an IC50 [26] of over 10000 nM, an IC50 [27] of over 10000 nM and an IC50 [28] of 6410 nM. The IC50 [29] was under 31.6 nM, the IC50 [30] was under 31.6 nM and the viability, T/C [31] was 92.2%. For the same compound, the viability, T/C [32] was 88.2%, the viability, T/C [33] was 93.3% and the viability, T/C [34] was 98.2%. It also gave a viability, T/C [35] of 87.5%, a viability, T/C [36] of 56.6% and a viability, T/C [37] of 96.6%. For the same compound, the viability, T/C [38] was 91.9%, the viability, T/C [39] was 88.8% and the viability, T/C [40] was 97.4%. For the same compound, the viability, T/C [41] was 72.1%, the viability, T/C [42] was 52% and the viability, T/C [43] was 68.8%. For the same compound, the viability, T/C [44] was 70%, the viability, T/C [45] was 66.8% and the viability, T/C [46] was 68.2%. It also gave a viability, T/C [47] of 61.1%, a viability, T/C [48] of 42.8% and a viability, T/C [49] of 39.5%. The viability, T/C [50] was 38.8%, the viability, T/C [51] was 40.3% and the viability, T/C [52] was 39.6%. The viability, T/C [53] was 34.1%, the viability, T/C [54] was 9.96% and the viability, T/C [55] was 29.7%. The viability, T/C [56] was 25.5%, the viability, T/C [57] was 29.8% and the viability, T/C [58] was 21.8%. The viability, T/C [59] was 10.8% and the viability, T/C [60] was 0.92%.
`C=C(F)C(=O)N1CCN(c2nc(OCC3CCCN3C)nc3c2CCN(c2cccc4cccc(Cl)c24)C3)CC1CC#N` (configuration not stated) + Cc1c(S(C)(=O)=O)c(-c2cc(F)cc(N3CCN(c4ccc(NS(=O)(=O)c5ccc(NC(CCN6CCC(C(=O)OCCCP(=O)(O)O)CC6)CSc6ccccc6)c(S(=O)(=O)C(F)(F)F)c5)cc4)CC3)c2)c(-c2ccc(Cl)cc2)n1C(C)C showed an IC50 [26] of 5430 nM, an IC50 [27] of 4900 nM and an IC50 [28] of 2950 nM. The IC50 [29] was under 31.6 nM, the IC50 [30] was under 31.6 nM and the viability, T/C [31] was 93.2%. It also gave a viability, T/C [32] of 91.6%, a viability, T/C [33] of 87.8% and a viability, T/C [34] of 100%. It also gave a viability, T/C [35] of 96.1%, a viability, T/C [36] of 0.45% and a viability, T/C [37] of 89.1%. For the same compound, the viability, T/C [38] was 89.3%, the viability, T/C [39] was 85.6% and the viability, T/C [40] was 88.5%. It also gave a viability, T/C [41] of 80.4%, a viability, T/C [42] of 0.42% and a viability, T/C [43] of 65%. It also gave a viability, T/C [44] of 70.8%, a viability, T/C [45] of 67.9% and a viability, T/C [46] of 62.8%. The viability, T/C [47] was 49.4%, the viability, T/C [48] was 0.39% and the viability, T/C [49] was 37.2%. It also gave a viability, T/C [50] of 36.6%, a viability, T/C [51] of 35.4% and a viability, T/C [52] of 32%. It also gave a viability, T/C [53] of 2.23%, a viability, T/C [54] of 0.3% and a viability, T/C [55] of 26.4%. It also gave a viability, T/C [56] of 23.3%, a viability, T/C [57] of 20.3% and a viability, T/C [58] of 18.8%. For the same compound, the viability, T/C [59] was 1.56% and the viability, T/C [60] was 0.39%.
`COc1c(OCCCN2CCOCC2)ccc2c3n(c(=NC(=O)c4cnc(N)nc4)nc12)CCN3` + CCN1C(C(=O)NC23CCC(C(=O)O)(CC2)CC3)C(c2cccc(Cl)c2F)C2(C(=O)Nc3cc(Cl)ccc32)C12CCCCC2 was tested, and the IC50 [1] was 153 nM, the IC50 [2] was 73.4 nM and the IC50 [3] was 21.9 nM. For the same compound, the IC50 [4] was 9.45 nM, the IC50 [5] was under 3.16 nM and the viability, T/C (second compound 0.03 µM, first compound 0.00316 µM) was 95.7%. For the same compound, the viability, T/C (second compound 0.03 µM, first compound 0.01 µM) was 99.4%, the viability, T/C [6] was 99.7% and the viability, T/C [7] was 63.6%. For the same compound, the viability, T/C [8] was 26%, the viability, T/C [9] was 13.1% and the viability, T/C (second compound 0.0949 µM, first compound 0.00316 µM) was 89.3%. The viability, T/C (second compound 0.0949 µM, first compound 0.01 µM) was 81.2%, the viability, T/C [10] was 74.2% and the viability, T/C [11] was 41%. The viability, T/C [12] was 15.2%, the viability, T/C [13] was 6.02% and the viability, T/C (second compound 0.3 µM, first compound 0.00316 µM) was 59.7%. The viability, T/C (second compound 0.3 µM, first compound 0.01 µM) was 59.2%, the viability, T/C [14] was 46% and the viability, T/C [15] was 23.4%. It also gave a viability, T/C [16] of 9.03%, a viability, T/C [17] of 3.12% and a viability, T/C (second compound 0.949 µM, first compound 0.00316 µM) of 55.1%. For the same compound, the viability, T/C (second compound 0.949 µM, first compound 0.01 µM) was 47%, the viability, T/C [18] was 38.4% and the viability, T/C [19] was 14%. The viability, T/C [20] was 5.66%, the viability, T/C [21] was 1.65% and the viability, T/C (second compound 3 µM, first compound 0.00316 µM) was 45.7%. For the same compound, the viability, T/C (second compound 3 µM, first compound 0.01 µM) was 40.4%, the viability, T/C [22] was 27.4% and the viability, T/C [23] was 7.37%. The viability, T/C [24] was 3.24% and the viability, T/C [25] was 0.71%.
In the case of `C=C(F)C(=O)N1CCN(c2nc(OCC3CCCN3C)nc3c2CCN(c2cccc4cccc(Cl)c24)C3)CC1CC#N` (configuration not stated), the viability, T/C (compound 0.0316 µM) is reported as 75.3% and 90.8% and 99.4%, the viability, T/C (compound 0.1 µM) is reported as 72.6% and 95.6% and 102% and the viability, T/C (compound 0.316 µM) is reported as 59.3% and 97.8% and 100%. The viability, T/C (compound 1 µM) was 38.8% and 98.2% and 107% and the viability, T/C (compound 10 µM) was 0.82% and 0.6% and 0.47%.
`COc1c(OCCCN2CCOCC2)ccc2c3n(c(=NC(=O)c4cnc(N)nc4)nc12)CCN3` was tested, and the viability, T/C (compound 0.00316 µM) was 102% (2×) and 105%, the viability, T/C (compound 0.01 µM) was 107% and 102% and 98.3% and the viability, T/C (compound 0.0316 µM) was 111% and 100% and 68%. For the same compound, the viability, T/C (compound 0.1 µM) was 95.3% and 105% and 36.9%, the viability, T/C (compound 0.316 µM) was 48.7% and 43.9% and 18.3% and the viability, T/C (compound 1 µM) was 28.9% and 26% and 11.2%. For the same compound, the IC50 (curve of compound) was 305 nM and 281 nM and 62.4 nM.
